A short description of data set [1]: Cytotoxicity against rat L6 cells assessed as cell growth inhibition incubated for 70 hrs by alamar blue staining based microscopy. The format is toxicity. A general note: Alamar Blue is a resazurin reagent that responds to reducing activity.
Data set [2] in a line: Selectivity index, ratio of IC50 for rat L6 cells to IC50 for erythrocytic Plasmodium falciparum NF54. Conditions: read-out: Ratio IC50. In kind it is toxicity.
Data set [3] concerns Plasmodium falciparum. The experiment in a line: Antimalarial activity against erythrocytic Plasmodium falciparum NF54 assessed as parasite growth inhibition incubated for 48 hrs by [3H]-hypoxanthine incorporation assay. In kind it is functional, organism-based.
Data set [4] concerns Plasmodium falciparum. The experiment in a line: Antimalarial activity against erythrocytic chloroquine/pyrimethamine resistant Plasmodium falciparum K1 assessed as parasite growth inhibition incubated for 48 hrs by [3H]-hypoxanthine incorporation assay. The format is functional, organism-based.
A further data set relates to Plasmodium berghei. The experiment in a line: Antimalarial activity against erythrocytic Plasmodium berghei ANKA infected in NMRI mouse assessed as reduction in parasitemia at 40 mg/kg, ip administered for 4 consecutive days measured after 24 hrs post last dose by FACS analysis relative to control. More on the design: scale not given: the % may be the effect or the level left. The format is functional. In general terms: A flow cytometer gives signals particle by particle.

Data set [5] can be described thus: Resistance index, ratio of IC50 for erythrocytic Plasmodium falciparum K1 to IC50 for erythrocytic Plasmodium falciparum NF54.
Data set [6] can be described thus: Selectivity index, ratio of IC50 for rat L6 cells to IC50 for erythrocytic Plasmodium falciparum K1. In kind it is toxicity. The conditions noted are these: read-out: Ratio IC50.
The test system of data set [7] is Hemozoin. The experiment in a line: Inhibition of detergent-mediated beta-hematin formation incubated for 5 to 6 hrs by absorbance based assay.
The nature of data set [8]: Selectivity index, ratio of IC50 for rat L6 cells to IC50 for Plasmodium falciparum K1. In kind it is toxicity. Conditions: read-out: Ratio IC50.
Another data set has as its target DNA. The experiment in a line: Binding affinity to DNA (unknown origin) assessed as DNA intercalation by measuring amount of methyl green by spectrophotometry. The format is nucleic-acid assay, Homo sapiens.
Data set [9] deals with Hemozoin. The experiment in a line: Inhibition of beta-hematin formation.
Data set [10] in a line: Selectivity index, ratio of IC50 for human MRC5 to IC50 for Plasmodium falciparum Ghana. The format is toxicity. Conditions: MRC5 cells, read-out: Ratio IC50.
Data set [11] in a line: Selectivity index, ratio of IC50 for rat L6 cells to IC50 for Plasmodium falciparum NF54. The format is toxicity. Conditions: read-out: Ratio IC50.

The IC50 is the concentration that inhibits the measured activity by half.

Regarding `C[C@H]1[C@H](OC(=O)CCC(=O)NCCCNc2c3ccccc3[n+](C)c3[nH]c4ccccc4c23)O[C@@H]2O[C@@]3(C)CC[C@H]4[C@H](C)CC[C@@H]1[C@@]24OO3`, the half-inhibitory concentration (IC50) at 70 h in data set [1] was 1.53 µM. The results for the selectivity ratio in data set [2] and in data set [6] were 3400 and 3640, respectively. In addition, the IC50 came out at 0.00045 µM in the data set on Plasmodium falciparum [3], 0.00042 µM with Plasmodium falciparum [4] and 222 µM with Hemozoin [7]. In addition, the Activity in the data set with Plasmodium berghei came out at 89.6%. For the same molecule, in data set [5], the Ratio IC50 was 0.93.

`Cn1c2nc3ccccc3c-2cc2ccccc21` [NEOCRYPTOLEPINE]: the selectivity ratio in [8] was 1.9; in data set [10] it was 0.4; in data set [11], 2. Besides, the IC50 on DNA is 93 µM; in the data set on Hemozoin [9], 5.97 µM.

The record behind these values is ChEMBL document CHEMBL5113378, “Role of basic aminoalkyl chains in the lead optimization of Indoloquinoline alkaloids” (Eur J Med Chem, 2022).
